Numbers after ± are expanded uncertainties.
Key:
[1] = xn = mol fraction of the nth substance listed; details: 298.15 K, 101 kPa, Liquid
[2] = excess molar enthalpy (molar enthalpy of mixing); xn = mol fraction of the nth substance listed; details: 298.15 K, 101 kPa, Liquid

With BrCCCCBr [1,4-dibromobutane] + COC(C)=O the mass density ([1]; x2 = 0.0837) was 1770.14 ± 6.4 kg/m3, the mass density ([1]; x2 = 0.1689) was 1713.04 ± 5.8 kg/m3 and the mass density ([1]; x2 = 0.2373) was 1664.79 ± 5.3 kg/m3. It also gave a mass density ([1]; x2 = 0.3235) of 1601.13 ± 4.6 kg/m3, a mass density ([1]; x2 = 0.3783) of 1558.38 ± 4.2 kg/m3 and a mass density ([1]; x2 = 0.4433) of 1505.87 ± 3.8 kg/m3. For the same compound, the mass density ([1]; x2 = 0.5073) was 1451.51 ± 3.4 kg/m3, the mass density ([1]; x2 = 0.5682) was 1397.42 ± 3 kg/m3 and the mass density ([1]; x2 = 0.6216) was 1347.79 ± 2.7 kg/m3. It also gave a mass density ([1]; x2 = 0.6771) of 1293.95 ± 2.3 kg/m3, a mass density ([1]; x2 = 0.7431) of 1226.93 ± 1.9 kg/m3 and a mass density ([1]; x2 = 0.8273) of 1135.92 ± 1.4 kg/m3. For the same compound, the mass density ([1]; x2 = 0.9151) was 1033.42 ± 0.94 kg/m3, the mass density ([1]; x2 = 0.9603) was 977.5 ± 0.87 kg/m3 and the excess molar enthalpy ([2]; x2 = 0.0848) was 0.0432 ± 0.00105 kcal/mol. The excess molar enthalpy ([2]; x2 = 0.1755) was 0.0741 ± 0.00153 kcal/mol, the excess molar enthalpy ([2]; x2 = 0.2635) was 0.0955 ± 0.00184 kcal/mol and the excess molar enthalpy ([2]; x2 = 0.3449) was 0.109 ± 0.00206 kcal/mol. It also gave an excess molar enthalpy ([2]; x2 = 0.4161) of 0.116 ± 0.00217 kcal/mol, an excess molar enthalpy ([2]; x2 = 0.4816) of 0.118 ± 0.0022 kcal/mol and an excess molar enthalpy ([2]; x2 = 0.5389) of 0.115 ± 0.00215 kcal/mol. It also gave an excess molar enthalpy ([2]; x2 = 0.5872) of 0.109 ± 0.00206 kcal/mol, an excess molar enthalpy ([2]; x2 = 0.6316) of 0.103 ± 0.00196 kcal/mol and an excess molar enthalpy ([2]; x2 = 0.6695) of 0.0954 ± 0.00184 kcal/mol. For the same compound, the excess molar enthalpy ([2]; x2 = 0.7038) was 0.089 ± 0.00174 kcal/mol, the excess molar enthalpy ([2]; x2 = 0.755) was 0.0763 ± 0.00155 kcal/mol and the excess molar enthalpy ([2]; x2 = 0.8095) was 0.062 ± 0.00134 kcal/mol. For the same compound, the excess molar enthalpy ([2]; x2 = 0.8632) was 0.046 ± 0.0011 kcal/mol, the excess molar enthalpy ([2]; x2 = 0.9128) was 0.0316 ± 0.00086 kcal/mol and the excess molar enthalpy ([2]; x2 = 0.9584) was 0.0149 ± 0.000621 kcal/mol.
Work on BrCCCCCBr [1,5-dibromopentane] + CCCCC(=O)OC yielded a mass density ([1]; x2 = 0.0687) of 1640.97 ± 5.5 kg/m3, a mass density ([1]; x2 = 0.1285) of 1593.96 ± 5 kg/m3 and a mass density ([1]; x2 = 0.1833) of 1550.6 ± 4.6 kg/m3. It also gave a mass density ([1]; x2 = 0.2445) of 1501.98 ± 4.2 kg/m3, a mass density ([1]; x2 = 0.3066) of 1452.48 ± 3.7 kg/m3 and a mass density ([1]; x2 = 0.4193) of 1362.14 ± 3 kg/m3. For the same compound, the mass density ([1]; x2 = 0.4804) was 1312.78 ± 2.6 kg/m3, the mass density ([1]; x2 = 0.5408) was 1263.86 ± 2.3 kg/m3 and the mass density ([1]; x2 = 0.601) was 1214.87 ± 2 kg/m3. The mass density ([1]; x2 = 0.6553) was 1170.47 ± 1.7 kg/m3, the mass density ([1]; x2 = 0.7137) was 1122.58 ± 1.4 kg/m3 and the mass density ([1]; x2 = 0.7698) was 1076.41 ± 1.2 kg/m3. For the same compound, the mass density ([1]; x2 = 0.822) was 1033.27 ± 0.93 kg/m3, the mass density ([1]; x2 = 0.8841) was 981.75 ± 0.81 kg/m3 and the excess molar enthalpy ([2]; x2 = 0.0709) was 0.011 ± 0.00108 kcal/mol. For the same compound, the excess molar enthalpy ([2]; x2 = 0.1603) was 0.0179 ± 0.00129 kcal/mol, the excess molar enthalpy ([2]; x2 = 0.2511) was 0.0203 ± 0.00136 kcal/mol and the excess molar enthalpy ([2]; x2 = 0.3436) was 0.0192 ± 0.00134 kcal/mol. It also gave an excess molar enthalpy ([2]; x2 = 0.4221) of 0.0158 ± 0.00122 kcal/mol, an excess molar enthalpy ([2]; x2 = 0.4895) of 0.0112 ± 0.0011 kcal/mol and an excess molar enthalpy ([2]; x2 = 0.5345) of 0.00609 ± 0.000932 kcal/mol. It also gave an excess molar enthalpy ([2]; x2 = 0.5389) of 0.00564 ± 0.000908 kcal/mol, an excess molar enthalpy ([2]; x2 = 0.5838) of 0.00184 ± 0.000789 kcal/mol and an excess molar enthalpy ([2]; x2 = 0.606) of -0.00203 ± 0.000813 kcal/mol. For the same compound, the excess molar enthalpy ([2]; x2 = 0.6821) was -0.00554 ± 0.000908 kcal/mol, the excess molar enthalpy ([2]; x2 = 0.7721) was -0.00777 ± 0.00098 kcal/mol and the excess molar enthalpy ([2]; x2 = 0.8617) was -0.00657 ± 0.000956 kcal/mol. For the same compound, the excess molar enthalpy ([2]; x2 = 0.943) was -0.000574 ± 0.000765 kcal/mol.
BrCCCCCCBr [1,6-dibromohexane] + CCC(=O)OC gave a mass density ([1]; x2 = 0.0903) of 1557.49 ± 4.9 kg/m3, a mass density ([1]; x2 = 0.1731) of 1517.27 ± 4.4 kg/m3 and a mass density ([1]; x2 = 0.254) of 1475.55 ± 4 kg/m3. The mass density ([1]; x2 = 0.3276) was 1435.11 ± 3.6 kg/m3, the mass density ([1]; x2 = 0.3987) was 1393.7 ± 3.2 kg/m3 and the mass density ([1]; x2 = 0.4603) was 1355.72 ± 2.9 kg/m3. The mass density ([1]; x2 = 0.5254) was 1313.37 ± 2.6 kg/m3, the mass density ([1]; x2 = 0.5807) was 1275.39 ± 2.3 kg/m3 and the mass density ([1]; x2 = 0.6388) was 1233.34 ± 2 kg/m3. For the same compound, the mass density ([1]; x2 = 0.695) was 1190.53 ± 1.8 kg/m3, the mass density ([1]; x2 = 0.7429) was 1152.05 ± 1.5 kg/m3 and the mass density ([1]; x2 = 0.7914) was 1111.32 ± 1.3 kg/m3. It also gave a mass density ([1]; x2 = 0.838) of 1070.17 ± 1.1 kg/m3, a mass density ([1]; x2 = 0.8789) of 1032.36 ± 0.91 kg/m3 and a mass density ([1]; x2 = 0.9195) of 993.3 ± 0.79 kg/m3. It also gave a mass density ([1]; x2 = 0.9621) of 950.1 ± 0.9 kg/m3, an excess molar enthalpy ([2]; x2 = 0.0951) of 0.0356 ± 0.000932 kcal/mol and an excess molar enthalpy ([2]; x2 = 0.1915) of 0.0572 ± 0.00127 kcal/mol. It also gave an excess molar enthalpy ([2]; x2 = 0.2814) of 0.0727 ± 0.00151 kcal/mol, an excess molar enthalpy ([2]; x2 = 0.3659) of 0.0818 ± 0.00165 kcal/mol and an excess molar enthalpy ([2]; x2 = 0.4423) of 0.0858 ± 0.0017 kcal/mol. It also gave an excess molar enthalpy ([2]; x2 = 0.5073) of 0.0845 ± 0.00167 kcal/mol, an excess molar enthalpy ([2]; x2 = 0.5644) of 0.0809 ± 0.00163 kcal/mol and an excess molar enthalpy ([2]; x2 = 0.6136) of 0.076 ± 0.00155 kcal/mol. It also gave an excess molar enthalpy ([2]; x2 = 0.6648) of 0.067 ± 0.00141 kcal/mol, an excess molar enthalpy ([2]; x2 = 0.7136) of 0.0588 ± 0.00129 kcal/mol and an excess molar enthalpy ([2]; x2 = 0.7663) of 0.0488 ± 0.00112 kcal/mol. It also gave an excess molar enthalpy ([2]; x2 = 0.817) of 0.0397 ± 0.00098 kcal/mol, an excess molar enthalpy ([2]; x2 = 0.8647) of 0.0308 ± 0.00086 kcal/mol and an excess molar enthalpy ([2]; x2 = 0.9137) of 0.0207 ± 0.000693 kcal/mol. For the same compound, the excess molar enthalpy ([2]; x2 = 0.9606) was 0.0103 ± 0.00055 kcal/mol.

From the NIST ThermoML archive (doi:10.1016/j.jct.2006.05.004)
